Measurements as given in patent publication US7015228B2, “4-amino-2-(2-pyridyl)pyrimidines as microbicidal active substances” (Ciba Specialty Chemicals Corporation, priority 2001, dated 2006).
In brackets after ≈: the same amount, converted by molar mass.

How the values were obtained:
[1] = test system: Escherichia coli NCTC 8196; assay: Minimum inhibitory concentration (MIC) in microtitre plates; assay type: cell-based; conditions: Table 7; 48 hours at 37° C.; MIC = ≦20% growth compared to control
Protocol: (§1) Determination of the Minimum Inhibitory Concentration (MIC Value) in Microtitre Plates
(§2) Casein-soybean flour-peptone broth for preparation of pre-cultures of test bacteria and yeast.
(§3) Mycological slant agar for the pre-culture of moulds
(§4) Examples of Test Organisms:
(§5) The test substances are pre-dissolved in dimethyl sulfoxide (DMSO) and tested in a dilution series of 1:2.
(§6) Bacteria and yeast are cultured overnight in CASO broth, the mould is cultured overnight on mycological slant agar, and washed off using 10 ml of 0.85% sodium chloride solution (+0.1% Triton X-100).
(§7) All the test organisms are adjusted to an organism count of 1–5×10^6 CFU/ml using 0.85% sodium chloride solution.
(§8) The test substances are pre-pipetted into microtitre plates in amounts of 8 μl per well.
(§9) Pre-diluted organism suspensions are diluted 1:100 in CASO broth (bacteria and yeast) or Sabouraud 2% glucose broth (mould) and are added in amounts of 192 μl per well to the test substances.
(§10) The test batches are incubated for 48 hours at 37° C. (bacteria and yeast) or for 5 days at 28° C. (mould).
(§11) After incubation, the growth is determined on the basis of the turbidity of the test batches (optical density) at 620 nm in a microplate reader.
(§12) The minimum inhibitory concentration (MIC value) is the concentration of substance at which there is found (compared to the growth of the control) an appreciable inhibition of growth (≦20% growth) of the test organisms.
(§13) One microtitre plate is used for each test organism and substance concentration. All the substances are tested in duplicate.

[2] = test system: Staphylococcus hominis DMS 20328; assay: as above; assay type: cell-based; conditions: Table 7; 48 hours at 37° C.; MIC = ≦20% growth compared to control
Protocol: as §1, §2, §3, §4, §5, §6, §7, §8, §9, §10, §11, §12, §13

Structure (SMILES) | Minimum inhibitory concentration (MIC) E. coli [1] [µg/mL] | Minimum inhibitory concentration (MIC) S. hominis [2] [µg/mL]
CC(C)(C)c1cc(NCCCCCCCCCCCCN)nc(-c2ccccn2)n1 [compound 55] | 60 (≈ 146 µM) | 7.5 (≈ 18.2 µM)
CCCCCCCCCCCCCCCCNc1cc(C(C)(C)C)nc(-c2ccccn2)n1 [compound 61] | >120 | >120
Cc1nc(-c2ccccn2)nc(NCCCCCCCN)c1C(C)C [compound 64] | >120 | 30 (≈ 87.8 µM)
Cc1nc(-c2ccccn2)nc(NCCCCCCCCCCCCN)c1C(C)C [compound 67] | 20 (≈ 48.6 µM) | 5 (≈ 12.1 µM)
CCCCCCCCCCCCNc1nc(-c2ccccn2)nc(C)c1C(C)C [compound 72] | >120 | 15 (≈ 37.8 µM)
CCCCCCCCCCCCCCCCNc1nc(-c2ccccn2)nc(C)c1C(C)C [compound 73] | >120 | 120 (≈ 265 µM)
Cc1nc(-c2ccccn2)nc(NC2CCCCC2)c1C(C)C [compound 74] | >120 | 60 (≈ 193 µM)
Cc1nc(-c2ccccn2)nc(NCCc2ccccc2)c1C(C)C [compound 75] | >120 | 30 (≈ 90.2 µM)
COCCc1cc(NCCCCCCCN)nc(-c2ccccn2)n1 [compound 76] | >80 | 40 (≈ 116 µM)
CCCCCCCNc1cc(CCOC)nc(-c2ccccn2)n1 [compound 80] | >120 | 30 (≈ 91.3 µM)
CCCCCCCCNc1cc(CCOC)nc(-c2ccccn2)n1 [compound 81] | >120 | 15 (≈ 43.8 µM)
CCCCCCCCCNc1cc(CCOC)nc(-c2ccccn2)n1 [compound 82] | 120 (≈ 337 µM) | 7.5 (≈ 21 µM)
CCCCCCCCCCCCNc1cc(CCOC)nc(-c2ccccn2)n1 [compound 84] | 120 (≈ 301 µM) | 15 (≈ 37.6 µM)
CCCCCCCCCCCCCCCCNc1cc(CCOC)nc(-c2ccccn2)n1 [compound 85] | 120 (≈ 264 µM) | 120 (≈ 264 µM)
COCCc1cc(NC2CCCCC2)nc(-c2ccccn2)n1 [compound 86] | >120 | 120 (≈ 384 µM)
COCCc1cc(NCCc2ccccc2)nc(-c2ccccn2)n1 [compound 87] | 120 (≈ 359 µM) | 30 (≈ 89.7 µM)
CCc1c(C)nc(-c2ccccn2)nc1NCc1ccccc1 [compound 88] | 120 (≈ 394 µM) | 120 (≈ 394 µM)
Cc1cc(NCc2ccccc2)nc(-c2ccccn2)n1 [compound 91] | >120 | 30 (≈ 109 µM)
FC(F)(F)c1cc(NCc2ccccc2)nc(-c2ccccn2)n1 [compound 94] | >120 | >120
CCCCCCCCCCCNc1cc(C(F)(F)F)nc(-c2ccccn2)n1 [compound 95] | >120 | 120 (≈ 304 µM)
CCCCCCCCCCCCCCCNc1cc(C(F)(F)F)nc(-c2ccccn2)n1 [compound 96] | 120 (≈ 266 µM) | 120 (≈ 266 µM)
CC(C)c1cc(NCc2ccccc2)nc(-c2ccccn2)n1 [compound 97] | 120 (≈ 394 µM) | 15 (≈ 49.3 µM)
